Structures can show the parent of a compound that is named as a salt.
Assays:
human M3 receptor = target: T1, human M3 receptor (Homo sapiens, UniProt P20309); test: Test for binding to human M3 receptor
T1 construct: expressed in transfected cells; host or cells: CHO cells
Procedure, shortened: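 CHO-cell crude membranes expressing human M3 were incubated with [N-methyl-3H]-(−)-scopolamine methyl chloride in 50 mM Tris-HCl, 0.5 mM EDTA, pH 7.4, for 60 min at room temperature. Bound ligand was collected on PEI-pretreated glass-fibre filters and counted by liquid scintillation. Ki was calculated from IC50 and the radioligand Kd.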

neurokinin NK1 receptor = target: T2, neurokinin NK1 receptor (Cavia porcellus, UniProt P30547); test: Effect of suppressing substance P-induced airway contraction (in vivo, intratracheal administration); parameters: species or system guinea pig; details: guinea pig; guinea pigs, intratracheal administration 60 minutes before 20 μg/kg i.v. SP; AUC of increase in airway pressure over 10 minutes; read-out: ID50 (the source's name)
T2 construct: Using healthy guinea pigs (body weight, 350 to 550 g; Hartley male guinea pigs); from tissue; host or cells: live anaesthetised Hartley male guinea pigs (airway, in vivo)
Procedure, shortened: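 Anaesthetised, gallamine-paralysed, ventilated male Hartley guinea pigs; compound in 5% glucose given intratracheally 60 min before 20 μg/kg i.v. substance P. Airway-pressure increase AUC over 10 min, inhibition versus vehicle group, expressed as ID50.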

muscarine M3 receptor = test: Effect of suppressing methacholine-induced airway contraction (in vivo, intratracheal administration); parameters: species or system guinea pig; details: guinea pigs, intratracheal administration 60 minutes before 30 μg/kg i.v. methacholine; AUC of increase in airway pressure over 10 minutes
Procedure, shortened: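 Anesthetized, gallamine-paralysed, ventilated male Hartley guinea pigs (350–550 g); compound in 5% glucose given intratracheally 60 min before 30 μg/kg i.v. methacholine. Airway pressure AUC over 10 min scored; ID50 from inhibition versus 5% glucose vehicle group.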

substance P receptor = target: T3, substance P receptor (Cavia porcellus, UniProt P30547); test: Test for binding to guinea-pig substance P receptor (crude lung membrane sample); details: crude guinea-pig lung membrane sample, [3H]substance P; Ki from IC50 and Kd; read-out: Ki
T3 construct: A preparation of a crude lung membrane sample was prepared; from tissue; host or cells: guinea-pig lung (crude membrane sample)
Description: A preparation of a crude lung membrane sample was prepared, and a test for binding of a test substance to the sample was performed according to the method described in EP0336230A2.
The binding effect of the test substance to a substance P receptor was calculated as an affinity (Ki) of the test substance for the substance P receptor from a 50% binding concentration (IC50) and an affinity (Kd) of [^3H]substance P for the substance P receptor.

T2 sequence (P30547 whole entry): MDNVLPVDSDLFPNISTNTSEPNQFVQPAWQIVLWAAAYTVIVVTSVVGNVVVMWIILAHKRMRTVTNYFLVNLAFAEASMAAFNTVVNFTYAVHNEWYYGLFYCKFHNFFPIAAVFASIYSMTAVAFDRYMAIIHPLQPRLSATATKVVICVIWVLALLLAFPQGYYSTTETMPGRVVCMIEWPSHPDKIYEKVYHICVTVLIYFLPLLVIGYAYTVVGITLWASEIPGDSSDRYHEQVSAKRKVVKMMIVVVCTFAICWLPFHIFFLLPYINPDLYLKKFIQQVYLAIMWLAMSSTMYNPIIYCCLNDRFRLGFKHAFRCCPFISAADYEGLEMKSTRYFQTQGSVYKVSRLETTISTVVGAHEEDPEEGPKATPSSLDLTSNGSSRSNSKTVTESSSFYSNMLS
T3 sequence (P30547 whole entry): as above
T1 sequence (P20309 whole entry): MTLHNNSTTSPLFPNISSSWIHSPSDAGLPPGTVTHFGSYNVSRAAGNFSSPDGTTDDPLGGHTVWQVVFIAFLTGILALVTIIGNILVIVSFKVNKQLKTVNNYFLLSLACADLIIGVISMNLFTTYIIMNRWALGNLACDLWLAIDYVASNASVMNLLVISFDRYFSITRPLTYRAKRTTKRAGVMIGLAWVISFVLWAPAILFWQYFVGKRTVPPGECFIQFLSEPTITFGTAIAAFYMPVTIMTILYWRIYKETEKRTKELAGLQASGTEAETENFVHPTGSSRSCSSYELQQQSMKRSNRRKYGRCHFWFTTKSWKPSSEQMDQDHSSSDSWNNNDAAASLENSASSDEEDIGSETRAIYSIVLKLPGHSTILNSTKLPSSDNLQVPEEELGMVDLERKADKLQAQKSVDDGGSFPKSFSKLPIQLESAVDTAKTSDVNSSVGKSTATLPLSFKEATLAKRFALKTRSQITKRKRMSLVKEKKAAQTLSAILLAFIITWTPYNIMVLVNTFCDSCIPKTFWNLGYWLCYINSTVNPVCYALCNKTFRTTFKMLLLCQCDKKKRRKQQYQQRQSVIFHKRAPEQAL

Cc1nc(NCCCCCC(=O)N(C)CCN2CCC(OC(=O)Nc3ccccc3-c3ccccc3)CC2)sc1C(=O)N(C)CCCN(C)C(=O)CO[C@H]1Cc2ccccc2C12CCN(CC[C@@]1(c3ccc(F)cc3)CN(C(=O)c3cc(C(F)(F)F)cc(C(F)(F)F)c3)CO1)CC2 [Example 105, 1-(2-{[6-({5-[{3-[({[(2S)-1′-{2-[(5R)-3-[3,5-Bis(trifluoromethyl)benzoyl]-5-(4-fluorophenyl)-1,3-oxazolidin-5-yl]ethyl}-2,3-dihydrospiro[indene-1,4′-piperidin]-2-yl]oxy}acetyl)(methyl)amino]propyl}(methyl)carbamoyl]-4-methyl-1,3-thiazol-2-yl}amino)hexanoyl](methyl)amino}ethyl)piperidin-4-yl biphenyl-2-ylcarbamate trihydrochloride]
Ki (human M3 receptor): 1.4 nM | ED50 (neurokinin NK1 receptor): 0.0273 mg/kg | ID50 (muscarine M3 receptor): 0.04 mg/kg | Ki (substance P receptor): 2.1 nM

CN(CCN1CCC(OC(=O)Nc2ccccc2-c2ccccc2)CC1)C(=O)CCCCCNc1ccc(C(=O)N2CCCN(C(=O)CO[C@H]3Cc4ccccc4C34CCN(CC[C@@]3(c5ccc(F)cc5)CN(C(=O)c5cc(C(F)(F)F)cc(C(F)(F)F)c5)CO3)CC4)CC2)cc1 [Example 110, 1-{2-[{6-[(4-{[4-({[(2S)-1′-{2-[(5R)-3-[3,5-Bis(trifluoromethyl)benzoyl]-5-(4-fluorophenyl)-1,3-oxazolidin-5-yl)ethyl}-2,3-dihydrospiro[indene-1,4′-piperidin]-2-yl]oxy}acetyl)-1,4-diazepan-1-yl]carbonyl}phenyl)amino]hexanoyl}(methyl)amino]ethyl}piperidin-4-yl biphenyl-2-ylcarbamate trihydrochloride]
Ki (human M3 receptor): 0.93 nM | ED50 (neurokinin NK1 receptor): 0.0174 mg/kg | ID50 (muscarine M3 receptor): 0.0318 mg/kg | Ki (substance P receptor): 1.7 nM

— patent US8476253B2, “Amide derivative” (Daiichi Sankyo Company, Limited, priority 2009, dated 2013)
